# Laboratory results from patent US8815863B2, “Compounds and therapeutic use thereof for protein kinase inhibition” (priority 2009, dated 2014).
# Like-named read-outs stand apart in the source and are kept apart here.
# Legend:
# [1] = tested on: Human colon cancer HT-99; experiment: Human colon cancer HT-99 transplanted nude mice; type: in vivo; conditions: GCT 20 mg/kg ip, compound 1 15 mg/kg iv
# Procedure: Some of the above compounds are tested in vitro or in vivo for their anti-cancer or anti-tumor activities, as well as cellular toxicity tests using SRB and MTT methods. The in vitro anti-cancer effects on human cancer HT-29 and mouse lung cancer cell 3LL are summarized in Table 1, and the effects on treating transplanted human colon cancer […] on nude mice are summarized in Table 2.
# [2] = tested on: human ovarian cancer; experiment: Human ovarian cancer transplanted nude mice, combination with Gemcitabine; type: in vivo, nude mice BALB/c-nu
# Procedure: The compound used for this test is XC608, shown above, and XC608-Cl is the chloride salt of XC608, 090208-1, also a whitish powder. AZD7762 is a yellow powder.
# All of the above are dissolved in 5% glucose injectible solution and diluted to suitable concentrations. Control: Gemcitabine is obtained from Jiangsu Haosen Pharmaceuticals Co., Ltd., also dissolved to suitable concentration in saline solution.
# Test animals: 30 nude mice BALB/c-nu, female, bw 18-20 g, supplied by B&K Universal Group Limited, Shanghai, China. Cancer cell lines: the human ovarian cell line is from a commercial source, transplanted onto nude mice, which were maintained by Shanghai Pharmaceutical Industry Research Institute.
# The tumors from the ovarian cancer carrying nude mice is isolated and cut into 1-mm^3 pieces, which are then implanted subcutaneously to the test nude mice. After 10 days, the tumors grow to a size of about 0.1 cm^3. The test mice are randomly divided into 5 groups of six animals.
# (§1) Starting from 11 days after tumor implant, the animals are administered the test compounds i.v. The animals are weighed every two days, and the tumor volume is measured. After 24 days from the beginning of test compound administration, the animals are killed and the tumors are isolated and weighed.
# The tumor volume (TV) is measured and calculated.
# Relative Tumor volume (RTV) is Vt/V0, wherein Vt is the tumor volume at the measurement time, while V0 is the tumor volume when drug administration was started.
# A compound's antitumor activity is measured by the RTV growth rate, T/C (%), which is calculated as: T/C=Treatment RTC/Control Group RTC×100%.
# If TC(%) is more than 60, then the treatment is considered to have no effect. Only when the TC is less than 60, an the difference is statistically significant would the treatment be considered to be effective.
# Another measurement is rate of tumor inhibition, which is IR (%)=(control group tumor weight−treatment group tumor weight)/control group tumor weight×100%.
# [3] = Body weight of ovarian cancer transplanted nude mice; type: in vivo, nude mice BALB/c-nu; conditions: i.v.
# Procedure: as §1
# [4] = tested on: HT-29 Cell line; experiment: SRB cell multiplication test, sensitizing to cytotoxic antitumor drugs
# Procedure: 3.2 Cell Lines: HT-29 Cell line (from ATCC).
# Test Protocol: The effects of the compounds on cancer cell multiplication was measured using Sulforhodamine B (SRB). Specifically, log phase cells are inoculated into the holes of 96-hole culture plates, allowed to grow using the wall-adhesion procedure at 37° C. under 5% CO2. The test compound at 9 different concentrations were added, each concentration in duplicate, with appropriate saline water and cell-less controls. The cells are cultured for a further 72 hours, and fixed with TCA, and SRB is added for staining, and washed, and air-dried. After adding the Tris solution, the OD value was measured at 510 nm using a Spectra Max 190. The rate of inhibition is calculated according to the formula below: Rate of Inhibition=(ODcontrol−ODdrug)/ODcontrol×100%.
# The IC50 is calculated based on the above ratios.
compound,measurement,setting,value
"Nc1ccn([C@@H]2O[C@H](CO)[C@@H](O)C2(F)F)c(=O)n1 [Gemcitabine, gemcitabine]",TC (%),[1],45%
same,TV Dn,"[2]; Dn, end of test, i.v.",1734.05 ± 586.49 mm^3
same,RTV dn,[2]; Vt/V0 at dn,12.07
same,TV d0,"[2]; d0, start of administration",143.67 ± 44.38 mm^3
same,Tumor Weight dn,[2]; isolated tumors at dn,2.85 g
same,Tumor RI % dn,[2]; rate of tumor inhibition by tumor weight versus control,19.72%
same,T/C % Dn,"[2]; treatment RTV/control RTV, *p < 0.05, **p < 0.01",82.27%
same,Body Weight (no tumor) Dn,"[3]; Dn, end of test",22.65 g
same,Body Weight (with tumor) d0,"[3]; d0, start of administration",21.38 g
same,Body Weight (with tumor) dn,"[3]; dn, end of test",25.50 g
same,IC50,"[4]; Homo sapiens, HT-29, 72 h, read-out: IC50 Drug alone",70 nM
same,IC50,"[4]; read-out: IC50 +10 nM AZD7762, HT-29, SRB, 72 hours, drug +10 nM AZD7762",30 nM
same,IC50,"[4]; read-out: IC50 +100 nM AZD7762, HT-29, SRB, 72 hours, drug +100 nM AZD7762",5 nM
same,IC50,"[4]; read-out: IC50 +1 μM XC608, HT-29, SRB, 72 hours, drug +1 μM XC608",3 nM
